melting point [°C]	SMILES
> 250	Nc1nc2cccnc2c2c1nc(O)n2Cc1ccccc1 [Example 2, 4-Amino-1-benzyl-1H-imidazo[4,5-c][1,5]naphthyridin-2-ol]
197 to 200	CCOc1nc2c(N)nc3cccnc3c2n1CC1CCOCC1 [Example 3, 2-Ethoxy-1-(tetrahydro-2H-pyran-4-ylmethyl)-1H-imidazo[4,5-c][1,5]naphthyridin-4-amine]
250 to 260	Nc1nc2cccnc2c2c1nc(O)n2CC1CCOCC1 [Example 4, 4-Amino-1-(tetrahydro-2H-pyran-4-ylmethyl)-1H-imidazo[4,5-c][1,5]naphthyridin-2-ol]
187 to 190	CCOc1nc2c(N)nc3cccnc3c2n1[C@@H](C)c1ccccc1 [Example 5, 2-Ethoxy-1-[(1S)-1-phenylethyl]-1H-imidazo[4,5-c][1,5]naphthyridin-4-amine]
241 to 243	C[C@@H](c1ccccc1)n1c(O)nc2c(N)nc3cccnc3c21 [Example 6, 4-amino-1-[(1S)-1-phenylethyl]-1H-imidazo[4,5-c][1,5]naphthyridin-2-ol]
